# According to US20090131468A1, “Bis-(Sulfonylamino) Derivatives in Therapy 065” (AstraZeneca AB, priority 2007, published 2009):
# Target: T1, human mPGES-1 (Homo sapiens, UniProt O14684)
# T1 sequence (O14684 1-152): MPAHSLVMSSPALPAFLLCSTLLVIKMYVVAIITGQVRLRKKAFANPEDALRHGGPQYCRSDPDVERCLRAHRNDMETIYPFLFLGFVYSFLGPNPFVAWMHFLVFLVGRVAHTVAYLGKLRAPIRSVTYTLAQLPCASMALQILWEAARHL
# Experiment: Microsomal prostaglandin E synthase biochemical assay
# Details: microsome preparation containing human mPGES-1; PGH2 10.8 μM, GSH 2.5 mM, pH 6.8; PGE2 quantified by HTRF; average of at least n=2
# Method in brief: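 Human mPGES-1 microsomes (from IL-1β-stimulated A549 cells or Sf9 cells expressing human mPGES-1) were pre-incubated 15 min with compound in potassium phosphate buffer pH 6.8 with GSH. PGH2 was then added, and the reaction was stopped after one minute with acidic ferric chloride/citrate. PGE2 was read by HTRF, and IC50 was taken from control-normalised activity.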
row,Structure (SMILES),IC50 [nM]
1,"NS(=O)(=O)c1ccccc1S(=O)(=O)NC(=O)[C@H]1CC[C@H](c2cc3ccccc3o2)CC1 [Example 106, (1r,4r)-4-(Benzofuran-2-yl)-N-(2-sulfamoylphenylsulfonyl)cyclohexanecarboxamide]",140
2,"COCCOCCOc1cc(C(=O)NS(=O)(=O)c2ccccc2S(N)(=O)=O)ccc1C#CC(C)(C)C [Example 118, 4-(3,3-Dimethylbut-1-ynyl)-3-(2-(2-methoxyethoxy)ethoxy)-N-(2-sulfamoylphenyl-sulfonyl)benzamide]",620
3,"NS(=O)(=O)c1ccccc1S(=O)(=O)NC(=O)c1ccc2oc(-c3cccnc3)cc2c1 [Example 123, 2-(Pyridin-3-yl)-N-(2-sulfamoylphenylsulfonyl)benzofuran-5-carboxamide]",2000
4,"NS(=O)(=O)c1ccccc1S(=O)(=O)NC(=O)c1c(F)cc(-c2cc3ccccc3o2)cc1F [Example 152, 4-(Benzofuran-2-yl)-2,6-difluoro-N-(2-sulfamoylphenylsulfonyl)benzamide]",570
5,"C[C@]1(C(=O)NS(=O)(=O)c2ccccc2S(N)(=O)=O)CC[C@@H](c2cc3ccccc3o2)CC1 [Example 109, (1s,4s)-4-(Benzofuran-2-yl)-1-methyl-N-(2-sulfamoylphenylsulfonyl) cyclohexane-carboxamide]",270
6,"NS(=O)(=O)c1ccccc1S(=O)(=O)NC(=O)c1ccc(Br)cc1Cl [Example 11, 4-Bromo-2-chloro-N-(2-sulfamoylphenyl)sulfonyl-benzamide]",5500
7,"NS(=O)(=O)c1ccccc1S(=O)(=O)NC(=O)c1ccc(-c2ccccc2)s1 [Example 35, 5-Phenyl-N-(2-sulfamoylphenyl)sulfonyl-thiophene-2-carboxamide]",530
8,"NS(=O)(=O)c1ccccc1S(=O)(=O)NC(=O)c1ccc(C#CC2CCCCC2)cn1 [Example 88, 5-(Cyclohexylethynyl)-N-(2-sulfamoylphenylsulfonyl)picolinamide]",140
9,"NS(=O)(=O)c1ccccc1S(=O)(=O)NC(=O)c1ccc2cc(-c3ccccc3)oc2c1 [Example 9, 2-Phenyl-N-(2-sulfamoylphenyl)sulfonyl-benzofuran-6-carboxamide]",78

# Further lines, results first:
row,IC50 [nM],Structure (SMILES)
1,1000,"NS(=O)(=O)c1ccccc1S(=O)(=O)NC(=O)c1ccc(C#Cc2ccccn2)cc1 [Example 71, 4-(Pyridin-2-ylethynyl)-N-(2-sulfamoylphenylsulfonyl)benzamide]"
2,270,"COc1cc(C(=O)NS(=O)(=O)c2ccccc2S(N)(=O)=O)ccc1C#CC(C)(C)C [Example 110, 4-(3,3-Dimethylbut-1-ynyl)-3-methoxy-N-(2-sulfamoylphenylsulfonyl)benzamide]"
3,32,"NS(=O)(=O)c1ccccc1S(=O)(=O)NC(=O)c1ccc(C#CC2CC2)c(OCCC(F)(F)F)c1 [Example 160, 4-(Cyclopropylethynyl)-N-(2-sulfamoylphenylsulfonyl)-3-(3,3,3-trifluoropropoxy)-benzamide]"
4,440,"NS(=O)(=O)c1ccccc1S(=O)(=O)NC(=O)c1ccc(Br)cc1 [Example 10, 4-Bromo-N-(2-sulfamoylphenyl)sulfonyl-benzamide]"
5,1400,"COC(C)(C)C#Cc1ccc(C(=O)NS(=O)(=O)c2ccccc2S(N)(=O)=O)cc1 [Example 112, 4-(3-Methoxy-3-methylbut-1-ynyl)-N-(2-sulfamoylphenylsulfonyl)benzamide]"
6,1700,"CC(C)(C)C#Cc1ncc(C(=O)NS(=O)(=O)c2ccccc2S(N)(=O)=O)cn1 [Example 96, 2-(3,3-Dimethylbut-1-ynyl)-N-(2-sulfamoylphenylsulfonyl)pyrimidine-5-carboxamide]"
7,53,"NS(=O)(=O)c1ccccc1S(=O)(=O)NC(=O)c1cnc(C#Cc2ccc(Cl)cc2)nc1 [Example 102, 2-((4-chlorophenyl)ethynyl)-N-(2-sulfamoylphenylsulfonyl)pyrimidine-5-carboxamide]"
8,180,"NS(=O)(=O)c1ccccc1S(=O)(=O)NC(=O)c1ccc(-c2cc3ccccc3o2)nc1 [Example 117, 6-(Benzofuran-2-yl)-N-(2-sulfamoylphenylsulfonyl)nicotinamide]"
9,300,"COCCn1c(-c2ccccc2)cc2cc(C(=O)NS(=O)(=O)c3ccccc3S(N)(=O)=O)ccc21 [Example 141, 1-(2-Methoxyethyl)-2-phenyl-N-(2-sulfamoylphenylsulfonyl)-1H-indole-5-carboxamide]"
